Data published in US5977144A (priority 1997, dated 1999).
“Also recorded” adds a separate entry of the source. Where two headings read alike, the source gives them in different places.

Legend:
[1] = target: alpha7 receptor (high affinity alpha-bungarotoxin binding, rat brain membranes) (Rattus norvegicus, UniProt Q05941); assay: biochemical; details: for IC50: rat brain membranes, read-out: IC50, [125I]α-bungarotoxin binding
[2] = target: T1, alpha4beta2 receptor (cytisine binding, rat brain membranes) (Rattus norvegicus, UniProt P09483+P12390); assay: biochemical; details: 1 μM (Table 2); read-out: alpha4beta2 binding: % inhibition of cytistine binding
T1 construct: from tissue; host or cells: rat brain membranes
Description: Further, the cinnamylidene-anabaseines displaced high affinity cytisine binding to rat brain membranes with lower affinity than other types of benzylidene-anabaseines. These observations are consistent with the cinnamylidene-anabaseines having some selectivity for alpha7 receptor subtypes over other types of nicotinic receptors, especially alpha4beta2 receptors, based on the types of receptors to which alpha-bungarotoxin and cytisine bind to in brain.

rat alpha7 receptor [3] = target: T2, rat alpha7 receptor (Rattus norvegicus, UniProt Q05941); assay: cell-based; details: for α7 receptor activation (in words): oocyte expression system; for EC50: oocytes, read-out: α7 EC50
Experimental: FIG. 13A. Effects of chronic injections of DMXB or nicotine on high affinity [^3 H]ACh or [^125 I]α-bungarotoxin (BTX) binding in rat neocortices. Adult male rats were injected with saline vehicle, 1 mg/kg DMXB or 0.2 mg/kg nicotine (NIC) (IP) daily for 2 weeks. At that time, neocortices were removed and assayed for high affinity [^3 H]ACh or [^125 I]α-bungarotoxin binding as described in the text. […] Responses of rat α7 ACHR to 3-CA, 2-MeOCA and 4-MeOCA. Concentration-response relationships for the peak agonist activated currents of oocytes injected with RNA coding for the rat α7 subunit. All responses were initially measured relative to the individual oocyte-response to 500 μM ACh, applied 5 min prior to drug-application. Responses were normalized relative to the maximum response obtainable with ACh so that a response of 1 represents full efficacy. The ratio of 500 μM ACh control response to ACh maximum was taken from Papke et al., 1997.
(§1) Oocytes were prepared and recordings made as described previously (de Fiebre, et al., 1995). Frogs were anesthetized by submersion in 0.1% (3)-aminobenzoic acid ethyl ester and several lobes of the ovary surgically removed through a small incision in the abdomen wall. Oocytes were freed from the follicle cells by treatment with collagenase (in calcium-free Barth's solution: 88 mM NaCl, 1 mM KCl, 15 mM Hepes pH 7.6, 0.33 mM MgSO4, 0.1 mg/ml gentamicin sulfate) for 2 hr at room temperature and Stage 5 oocytes were isolated. Oocytes were rinsed and stored at 18° C. in Barth's saline (88 mM NaCl, 1 mM KCl, 15 mM Hepes pH 7.6, 0.3 mM Ca(NO3)2, 0.41 mM CaCl2, 0.82 mM MgSO4, 0.1 mg/ml gentamicin sulfate) before and after microinjection with RNA. Microinjection was conducted with a Drummond Scientific "Nanoject Variable" automatic injector. Oocytes were injected with a 50 nl solution of specified rat nicotinic subunit mRNA species (2-10 mg/ml; derived from the cDNA containing HIP 306 plasmid kindly provided by Dr. Jim Boulter, Salk Institute) and incubated 2-7 days at 18° C. before electrophysiological recording. electrophysiological recordings, oocytes were perfused in a Warner Instruments RC-8 recording chamber with a perfusion solution containing 115 mM NaCl, 2.5 mM KCl, 10 mM Hepes pH 7.2, 1.8 mM CaCl2 and 1 μM atropine to block muscarinic responses. Perfusion was continuous at a rate of 10 ml/min. Drags were diluted in perfusion solution and applied using a solenoid valve to switch from perfusion to drug solutions. Current responses to drug administration were studied under two electrode voltage clamp at a holding potential of -70 mV using a Dagan Corp. TEV-200 voltage clamp connected to a 386-SX IBM computer using a TL-1 DMA interface (Axon Instruments). Micropipettes were filled with 3 M KCl and had resistances of 0.5-2 MOhms. Drug responses are analyzed with PClamp software (Axon Instruments). Oocytes with resting potentials of less than -30 mV were rejected.

rat alpha4beta2 receptor [4] = target: T3, rat alpha4beta2 receptor (Rattus norvegicus, UniProt P09483+P12390); assay: Activation of alpha4beta2 receptors expressed in Xenopus oocytes; format: cell-based; details: Table 4; read-out: Oocytes Agonist α4
Experimental: FIG. 14A. Responses of α4β2 ACHR to 3-CA, 2-MeOCA or 4-MeOCA. Concentration-response relationships for the peak agonist activated currents of oocytes injected with RNA coding for rat α4β2 subunits. Responses are first expressed relative to the response to 10 μM ACh, applied 5 min before drug-application, then normalized to the maximum response obtainable with ACh so that a response of 1 represents full efficacy. The ratio between 10 μM ACh and maximum ACh response was determined in separate experiments.
as §1

rat alpha7 receptor [5] = target: T2, rat alpha7 receptor; assay: cell-based; set-up: Oocytes Antagonist: unit not given here; details: for IC50: ACh applied 5 min after compound, read-out: IC50, antagonism subsequent to agonist activity; for Oocytes Antagonist: Table 4; for alpha 7 antagonism: % of antagonism of acetylcholine administered after drug: xenopus oocytes
Experimental: FIG. 13B. Effects of chronic injections of DMXB or nicotine on high affinity [^3 H]ACh or [^125 I]α-bungarotoxin (BTX) binding in rat neocortices. Adult male rats were injected with saline vehicle, 1 mg/kg DMXB or 0.2 mg/kg nicotine (NIC) (IP) daily for 2 weeks. At that time, neocortices were removed and assayed for high affinity [^3 H]ACh or [^125 I]α-bungarotoxin binding as described in the text. […] Responses of rat α7 AChR to 3-CA, 2-MeOCA and 4-MeOCA. […] All responses are expressed relative to the oocyte-response to 500 μM ACh applied 5 min prior to the experimental agonist application.
as §1
(§2) Antagonist properties subsequent to agonist activity were measured as a decrease in responsiveness to ACh applied 5 min after compound-application, normalized to ACh application instead of the anabaseine-derivative (FIG. 13A AND FIG. 13B).

rat alpha4beta2 receptor [6] = target: T3, rat alpha4beta2 receptor; assay: Antagonism of alpha4beta2 receptors in oocytes (residual inhibition of ACh response after drug); format: cell-based; details: xenopus oocytes
Experimental: as §1, with “Micropipettes were filled with 3 M KCl and had resistances of 0.5-2 MOhms.” left out, “Oocytes with resting potentials of less than -30 mV were rejected.” left out
as §2

PC12 cells [7] = format: cell-based; details: for neurite protection during NGF-deprivation (in words): 10 μM; for Neurite Counts: 10 μM (NGF 100 ng/ml), 4 days after removal of serum and NGF, mean±SEM, * p<0.05
Experimental: PC12 cell-culture methods were modified from Greene and Tischler (1976). Cells were plated at 30-40% confluence and grown in Dulbecco's Modified Eagle Medium containing 10% heat-inactivated horse serum, 5% fetal bovine serum, 100 units/ml penicillin, 100 μg/ml streptomycin and 0.5 mM 1-glutamine. Cultures were maintained at 37° C., […] /6% CO2 and 90-92% humidity in culture plates pre-coated with poly-1lysine (10 g/L). Cultures were maintained for 7 days in serum-supplemented medium to which 100 ng/ml rat 2.5S NGF was added at day 1. On day 7, conditioned medium was replaced serum-free medium containing specified drugs. Four days later, cell density was estimated using the NIH Image program version 1.47 and number of neurite-expressing cells counted manually in blind fashion as described previously (Martin et al., 1994). A Nikon inverted microscope (100× magnification) was attached to a Mac II computer via a monochrome video camera (Cohu, Inc., San Diego, Calif.). Four random areas were counted per plate and there were 4 plates per treatment group, unless otherwise indicated. Neurites were defined as processes at least 2× the length of the perikaryon. To assess the reliability of the image analyses, a reticle was used for direct quantification of cells in the same view as the one analyzed in random samples.
PC12 cells were differentiated for 1 week with NGF. Drugs were administered for the 4 day interval after removal of serum and NGF. Neuites were counted and expressed as the mean±SEM of at least 3 plates/group.

rat alpha4beta2 receptor [8] = target: T3, rat alpha4beta2 receptor; assay: Activation of alpha4beta2 receptors expressed in Xenopus oocytes; format: cell-based; details: read-out: alpha4beta2 activation: % response observed with 10 μM acetylcholine
PC12 cells [9] = format: cell-based; details: Table 4
rat alpha7 receptor [10] = target: T2, rat alpha7 receptor; details: cited from earlier work
rat alpha7 receptor [11] = target: T2, rat alpha7 receptor; details: literature; cited from earlier work
[12] = system: animal models of learning and memory; details: animals; cited from earlier work
[13] = system: alpha7 nicotinic receptors
[14] = system: cholinesterase-staining cells in the nucleus basalis; details: rat, in vivo
Experimental: Passive avoidance behavior was measured in nucleus basalis lesioned rats after intraperitoneal (IP) injections of drugs (base weight) or 0.9% saline diluent. For lesions, male 5 month old Sprague Dawley rats were anesthetized with 30 mg/kg sodium pentobarbital (IP) and then infused bilaterally with 1 μl of 5 μg/μl ibotenic acid in phosphate buffered saline, pH 7.4, into the nucleus basalis as described previously (17). Infusion coordinates were anterior 7.0 mm, lateral 2.6 mm and vertical 6.5 mm according to Paxinos and Watson (Paxinos and Watson, 1986).
Histological assessments of the ibotenic acid placements in the nucleus basalis were made after behavioral measurements, using cholinesterase staining in formalin-fixed tissues.

[15] = 1 μM (Table 2), read-out: alpha7 binding: % inhibition of alphabungarotoxin binding
[16] = Table 4, read-out: Receptor Binding α7
[17] = Table 4, read-out: Oocytes Agonist α7
[18] = read-out: alpha7 activation: % response observed with 500 μM acetylcholine

T3 sequence (P09483 31-630): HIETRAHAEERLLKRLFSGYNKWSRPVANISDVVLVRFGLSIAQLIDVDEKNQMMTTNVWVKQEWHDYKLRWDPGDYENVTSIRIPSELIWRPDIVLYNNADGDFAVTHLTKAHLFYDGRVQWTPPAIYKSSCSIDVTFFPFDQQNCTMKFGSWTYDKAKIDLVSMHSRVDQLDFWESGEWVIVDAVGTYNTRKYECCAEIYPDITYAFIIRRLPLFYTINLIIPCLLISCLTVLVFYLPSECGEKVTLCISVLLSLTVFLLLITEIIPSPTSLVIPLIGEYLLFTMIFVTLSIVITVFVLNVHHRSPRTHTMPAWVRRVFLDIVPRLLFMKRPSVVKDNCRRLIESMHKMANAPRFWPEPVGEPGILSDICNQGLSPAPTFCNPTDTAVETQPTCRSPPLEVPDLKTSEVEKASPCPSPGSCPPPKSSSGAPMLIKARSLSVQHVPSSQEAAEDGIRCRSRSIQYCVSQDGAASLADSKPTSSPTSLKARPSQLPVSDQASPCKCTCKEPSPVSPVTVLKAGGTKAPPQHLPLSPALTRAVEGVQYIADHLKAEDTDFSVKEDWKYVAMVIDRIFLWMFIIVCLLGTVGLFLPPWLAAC
T3 sequence (P12390 25-500): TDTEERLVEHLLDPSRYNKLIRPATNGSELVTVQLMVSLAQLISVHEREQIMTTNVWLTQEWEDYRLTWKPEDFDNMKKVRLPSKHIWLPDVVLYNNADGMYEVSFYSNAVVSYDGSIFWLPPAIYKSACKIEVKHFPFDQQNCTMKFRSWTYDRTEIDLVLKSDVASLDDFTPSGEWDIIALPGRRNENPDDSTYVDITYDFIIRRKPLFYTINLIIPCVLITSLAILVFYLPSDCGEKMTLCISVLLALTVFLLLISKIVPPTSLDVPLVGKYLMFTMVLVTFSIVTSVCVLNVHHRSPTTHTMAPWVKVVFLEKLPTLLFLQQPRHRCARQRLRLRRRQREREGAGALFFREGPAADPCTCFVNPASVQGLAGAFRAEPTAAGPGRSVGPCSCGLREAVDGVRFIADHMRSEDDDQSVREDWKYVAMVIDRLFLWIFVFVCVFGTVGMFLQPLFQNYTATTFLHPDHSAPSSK
alpha7 receptor (high affinity alpha-bungarotoxin binding, rat brain membranes), sequence (Q05941 23-502): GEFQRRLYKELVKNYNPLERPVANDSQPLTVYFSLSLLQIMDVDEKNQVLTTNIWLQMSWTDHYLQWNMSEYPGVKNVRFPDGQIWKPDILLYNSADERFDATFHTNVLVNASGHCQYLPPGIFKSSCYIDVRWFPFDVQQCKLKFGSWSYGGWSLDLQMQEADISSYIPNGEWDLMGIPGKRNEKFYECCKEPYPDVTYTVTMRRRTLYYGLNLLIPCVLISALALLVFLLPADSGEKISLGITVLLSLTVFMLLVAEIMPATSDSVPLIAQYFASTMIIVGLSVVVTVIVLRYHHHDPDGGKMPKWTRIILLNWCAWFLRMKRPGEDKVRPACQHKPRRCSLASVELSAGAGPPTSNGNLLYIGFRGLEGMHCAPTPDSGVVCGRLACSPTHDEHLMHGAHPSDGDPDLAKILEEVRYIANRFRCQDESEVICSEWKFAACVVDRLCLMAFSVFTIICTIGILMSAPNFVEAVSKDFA
T2 sequence (Q05941 23-502): as above
T1 sequence (P09483 31-630): as the sequence (P09483 31-630) above
T1 sequence (P12390 25-500): as the sequence (P12390 25-500) above

C(=C\c1ccccc1)/C=C1\CCCN=C1c1cccnc1 [3-CA, E,E-3-(Cinnamylidene)anabaseine]
inhibition at 1 µM [1, 15]: 94.7% | inhibition at 1 µM [1, 16]: 94.7% | IC50 [1]: 0.08 µM | inhibition at 1 µM [2]: 6.2% | selectivity α7 over α4β2 (in words) (rat alpha7 receptor [3]): selectively activate α7 receptors over α4β2 | Emax (rat alpha7 receptor [3]; [17]): 92% | α7 receptor activation (in words) (rat alpha7 receptor [3]): fully efficaciously | EC50 (rat alpha7 receptor [3]): 3.2 ± 0.7 µM | Emax (rat alpha7 receptor [3]; [18]): 92% | Emax (rat alpha4beta2 receptor [4]): 2.6% | inhibition of α7 receptors, estimated (rat alpha7 receptor [5]; 10 μM, estimated from oocyte results): less than 20% | inhibition at 10 µM (rat alpha7 receptor [5]; 10 μM, ACh application 5 min later, read-out: long term inhibition of α7 receptors): < 20% | IC50 (rat alpha7 receptor [5]): 15 ± 6 µM | Oocytes Antagonist (rat alpha7 receptor [5]): .50 | alpha 7 antagonism: % of antagonism of acetylcholine administered after drug (rat alpha7 receptor [5]): 45 | alpha4beta2 antagonism: % of antagonism of acetylcholine administered after drug (rat alpha4beta2 receptor [6]): 10 | neurite protection during NGF-deprivation (in words) (PC12 cells [7]): neuroprotective against neurite-loss during NGF-deprivation; also recorded: protected against NGF-deprivation neurite loss; also recorded: exhibited cytoprotective activity; also recorded: effective | Neurite Counts (PC12 cells [7]): 185 ± 19 | Emax (rat alpha4beta2 receptor [8]): < 3% | PC12 Cyto. (PC12 cells [9]): +?

COc1ccc(/C=C/C=C2\CCCN=C2c2cccnc2)cc1 [4-MeOCA, E,E-3-(4-Methoxycinnamylidene)anabaseine]
inhibition at 1 µM [1, 15]: 94.1% | inhibition at 1 µM [1, 16]: 94.1% | IC50 [1]: 0.054 µM | inhibition at 1 µM [2]: 32% | selectivity α7 over α4β2 (in words) (rat alpha7 receptor [3]): selectively activate α7 receptors over α4β2 | times less potent (α7 activation) (rat alpha7 receptor [3]): 2-3 times | Emax (rat alpha7 receptor [3]; [17]): 45% | α7 receptor activation (in words) (rat alpha7 receptor [3]): fully efficaciously | EC50 (rat alpha7 receptor [3]): 15.9 ± 7.9 µM | Emax (rat alpha7 receptor [3]; [18]): 45% | Emax (rat alpha4beta2 receptor [4]): < 5% | IC50 (rat alpha7 receptor [5]): 5 ± 2.3 µM | Oocytes Antagonist (rat alpha7 receptor [5]): .104 | alpha 7 antagonism: % of antagonism of acetylcholine administered after drug (rat alpha7 receptor [5]): 75 | alpha4beta2 antagonism: % of antagonism of acetylcholine administered after drug (rat alpha4beta2 receptor [6]): 34 | neurite protection during NGF-deprivation (in words) (PC12 cells [7]): Neither 2-MeOCA nor 4-MeOCA elicited neurite-protection | Neurite Counts (PC12 cells [7]): 155 ± 23 | Emax (rat alpha4beta2 receptor [8]): < 2%

CN(C)c1ccc(/C=C/C=C2\CCCN=C2c2cccnc2)cc1 [DMAC, E,E-3-(4-dimethylaminocinnamylidene) anabaseine]
α7 agonist activity (in words) (rat alpha7 receptor [10]; background/literature): fully efficacious and potent α7 agonist | selectivity α7 over α4β2 / other nicotinic subtypes (in words) (rat alpha7 receptor [10]; literature): selectively activate α7 receptors over α4β2 | long term inhibition / antagonism of α7 receptors (in words) (rat alpha7 receptor [11]): long term inhibition of α7 receptors following activation; also recorded: potent antagonist activity | memory-related performance (in words) [12]: memory-enhancing activity in rodents; also recorded: effective in this behavioral paradigm

CCO [ethanol]
antagonism of nicotinic receptors by ethanol (in words) [13]: alpha7 nicotinic receptors were sensitive to antagonism by ethanol while other receptor types were not affected

N[C@H](C(=O)O)c1cc(=O)[nH]o1 [ibotenic acid]
reduction of cholinesterase-staining cells in nucleus basalis [14]: over 80%
